Test results reported in PMC11718441, “Bis-3-chloropiperidines: a novel motif for anthelmintic drug design” (RSC Advances, 2025).
≈ marks a conversion by molar mass, not a printed value. Read-outs that look alike come from different tables or passages of the source.

Tests used:
C. elegans DC19 = experiment: whole plant or invertebrate; format: cell-based, Caenorhabditis elegans
From the text: (§1) The cuticle of C. elegans strain DC19 is known to be more permeable for small molecules compared to the wildtype N2.[30] DC19 is thereby considered an informative drug-sensitive test organism. In our assays, we determined the minimum mobility inhibitory concentration (MMIC) as a proxy for anthelmintic activity. […] In contrast, MMICs of some small molecule anthelmintics such as albendazole, mebendazole or PF-1022A were lower for DC19 (Fig. S1 ^†). […]
(§2) 2.2 In vitro tests against Caenorhabditis Elegans
(§3) The minimal motility inhibitory concentration (MMIC) of compounds 1-22 against C. elegans was determined as described before.3 Both strains, C. elegans N2 and DC19 were treated identically. Briefly, pre-cultures of C.elegans were kept on NGM agar plates infused with auxotrophic E.coli OP50 as food source.4 After 4 days the plates contained sufficient gravid worms, respectively. Worms were washed from the plates with M9 buffer using wide bore pipette tips. Egg preparation was carried out by treating the harvested worms with an alkaline hypochlorite solution (5 M NaOH + 5 % NaOCl 1:2) in polypropylene tubes. Larvae and adult […]
(§4) We carried out 3 washing steps (M9 buffer) to remove carry-over hypochlorite solution. Subsequently, the eggs were incubated overnight in NGM broth on a rotator to yield synchronized hatched L1/L2 larvae. The larvae solution was adjusted to 100 worms/mL and supplemented with cholesterol (5 µg/mL), carbenicillin (25 µg/mL) and E.coli OP50 (0.5%). This assay solution was distributed into 96 well plates and incubated with a dilution series of compounds 1-22 (64-0.5 µg/mL). An additional eight-point dilution series of ivermecin (40 – 0.3 ng/mL) was used as positive control on each assay plate. Solvent background was controlled by supplementation of pure DMSO without any compound. Assays were incubated for 2 days at room temperature. Finally, a cell imaging multimode reader (Cytation™ 5) was used to record short videos (1.5 seconds) of each individual test well. The videos were used to evaluate the worm motility.

C. elegans N2 = experiment: whole plant or invertebrate; format: cell-based, Caenorhabditis elegans
From the text: as §1, §2, §3, §4

[1] = test system: Septoria tritici MUCL45408; experiment: Minimum inhibitory concentration (MIC), S. tritici (ATP quantification); format: cell-based; conditions: for MIC: Zymoseptoria tritici, read-out: MIC St
Protocol: (§5) The minimum inhibitory concentration (MIC) of the synthesized compounds was initially determined against three microbial indicator strains (Escherichia coli ATCC35218, […] ATCC33592, Septoria tritici MUCL45408). […]
(§6) 2. Microbial and parasitological studies
(§7) The minimum inhibitory concentration (MIC) of the synthesized compounds was determined against three microbial indicator strains (E. coli ATCC35218, S. aureus ATCC33592 and S. tritici MUCL45408) as previously described.1,2 All samples were dissolved in DMSO and tested in triplicate. Briefly, a pre-culture of E. coli and S. aureus was prepared by incubating the strains in cation adjusted Mueller Hinton 2 broth (Becton Dickinson, Sparks, NV, USA) at 37°C and 180 rpm overnight. The cell density of adjusted to 5 × 10^5 cells/mL before assays were incubated at 37 °C, 180 rpm and 85% rH. Three distinct dilution series of standard antibiotics (gentamicin, rifampicin, and tetracycline) were used as positive controls on each assay plate. Inoculated medium without test compound or positive control was used as negative control.
Medium background was averaged from 5 replicates. The turbidity of each well was measured with a microplate spectrophotometer at 600 nm (LUMIstar® Omega, BMG Labtech) and growth inhibition was calculated relative to the absorption of the controls. For S. tritici MUCL45408 inoculated at a density of 1 × 10^5 cells/mL in potato […]
dextrose medium. Septoria assay plates were incubated for 4 days at 25 °C, 180 rpm and 85% rH. Tebuconazole, amphotericin B, and nystatin were used as positive controls. Cell viability was evaluated via ATP quantification (BacTiter-Glo™, Promega GmbH, Walldorf, Germany) according to the manufacturer’s instructions. […]

[2] = test system: Escherichia coli ATCC35218; experiment: microbe, parasite or virus in culture; format: cell-based; conditions: ATCC35218, read-out: MIC Ec
Protocol: as §5, §6
as §7, with “and tetracycline) were used as positive controls on each assay plate. Inoculated medium without test compound or positive control was used as negative control.” left out
(§8) medium without test compound or positive control was used as negative control.
(§9) Medium background was averaged from 5 replicates. The turbidity of each well was […]

S. aureus ATCC33592 = experiment: microbe, parasite or virus in culture; format: cell-based; conditions: Staphylococcus aureus, ATCC33592, read-out: MIC Sa
Protocol: as §5, §6
as §7, with “and tetracycline) were used as positive controls on each assay plate. Inoculated medium without test compound or positive control was used as negative control.” left out
as §8, §9

MDCK II cells = experiment: In vitro cytotoxicity, CellTiter-Glo, MDCK II cells; conditions: 100 μM, 48 h; cell viability less than 80% relative to DMSO control = cytotoxic
[3] = Figure S1, common small molecule anthelminthics

Molecule: O=C(C1CCCCC1)N1CC(=O)N2CCc3ccccc3C2C1 (stereo not drawn) [Praziquantel, reference compound]
- C. elegans MMIC DC19 (C. elegans DC19; [3]): > 10 µg/mL
- C. elegans MMIC N2 (C. elegans N2; [3]): > 10 µg/mL

Molecule: C[C@@H]1[C@H](O)[C@@H](C)/C=C/C=C/C=C/C=C/C=C/C=C/C=C/[C@H](O[C@@H]2O[C@H](C)[C@@H](O)[C@H](N)[C@@H]2O)C[C@@H]2O[C@](O)(C[C@@H](O)C[C@@H](O)[C@H](O)CC[C@@H](O)C[C@@H](O)CC(=O)O[C@H]1C)C[C@H](O)[C@H]2C(=O)O [AMP, amphotericin B, reference compound]
- MIC ([1]; MUCL45408, 96 h): 0.125 µg/mL (≈ 0.135 µM)

Molecule: CC1(C)CC(Cl)CN(Cc2cccc(CN3CC(Cl)CC(C)(C)C3)n2)C1 (stereo not drawn) [Compound 6]
- MIC [2]: > 64 µg/mL
- MIC (S. aureus ATCC33592): 64 µg/mL (≈ 161 µM)
- MIC ([1]; MUCL45408, 96 h): > 64 µg/mL
- minimal effective concentration (C. elegans N2; Caenorhabditis elegans, 48 h, read-out: MMIC N2): 64 µg/mL
- MDCKII cytotoxicity (MDCK II cells): + (“+” (toxic))

Molecule: CC(=O)Oc1ccccc1C(=O)Nc1ncc([N+](=O)[O-])s1 [Nitazoxanide, reference compound]
- C. elegans MMIC DC19 (C. elegans DC19; [3]): > 10 µg/mL
- C. elegans MMIC N2 (C. elegans N2; [3]): > 10 µg/mL

Molecule: ivermectin [IVR, reference compound]
- MMIC DC19 (C. elegans DC19; C. elegans DC19, 2 days): 0.005 µg/mL
- C. elegans MMIC DC19 (C. elegans DC19; [3]): 0.005 µg/mL
- MMIC N2 (C. elegans N2; C. elegans N2, 2 days): 0.005 µg/mL
- C. elegans MMIC N2 (C. elegans N2; [3]): 0.005 µg/mL

Molecule: Abamectin [reference compound]
- C. elegans MMIC DC19 (C. elegans DC19; [3]): < 0.08 µg/mL
- C. elegans MMIC N2 (C. elegans N2; [3]): < 0.08 µg/mL

Molecule: COC(=O)Nc1nc2ccc(C(=O)c3ccccc3)cc2[nH]1 [Mebendazole, reference compound]
- C. elegans MMIC DC19 (C. elegans DC19; [3]): 0.3 µg/mL
- C. elegans MMIC N2 (C. elegans N2; [3]): 1.25 µg/mL

Molecule: C[C@H](CCC(=O)O)C[C@H](C)C[C@H](C)C(=O)/C=C(\O)[C@H](C)C[C@H](C)C/C=C/[C@@H](C)[C@@H](O)[C@@H](C)[C@@H](O)C[C@@H]1CC[C@@](C)([C@H]2CC[C@@](C)([C@@H](C)O)O2)O1 [ION, ionomycin, reference compound]
- MDCKII cytotoxicity (MDCK II cells): + (“+” (toxic))

Molecule: CO[C@H]1/C=C/O[C@@]2(C)Oc3c(C)c(O)c4c(O)c(c(/C=N/N5CCN(C)CC5)c(O)c4c3C2=O)NC(=O)/C(C)=C\C=C\[C@H](C)[C@H](O)[C@@H](C)[C@@H](O)[C@@H](C)[C@H](OC(C)=O)[C@@H]1C [RIF, rifampicin, reference compound]
- MIC [2]: 4 µg/mL (≈ 4.86 µM)
- MIC (S. aureus ATCC33592): > 64 µg/mL

Molecule: C[C@@H]1[C@H](O)[C@@H](C)/C=C/C=C/CC/C=C/C=C/C=C/C=C/C(O[C@H]2O[C@H](C)[C@@H](O)[C@H](N)[C@@H]2O)CC2O[C@](O)(CC(O)C(O)CCC(O)CC(O)CC(O)CC(=O)O[C@H]1C)CC(O)C2C(=O)O (stereo partly drawn) [NYS, nystatin, reference compound]
- MIC St ([1]; S. tritici MUCL45408, 4 days): 0.25 µg/mL (≈ 0.27 µM)

Molecule: c1ccc([C@H]2CN3CCSC3=N2)cc1 [Levamisole, reference compound]
- C. elegans MMIC DC19 (C. elegans DC19): 0.3 µg/mL
- C. elegans MMIC N2 (C. elegans N2): 0.3 µg/mL

Molecule: CC(C)(C)C(O)(CCc1ccc(Cl)cc1)Cn1cncn1 (stereo not drawn) [TEB, tebuconazole, reference compound]
- MIC ([1]; 96 h, S. tritici MUCL45408, 4 days): > 0.03 µg/mL

Molecule: CC(C)C[C@H]1C(=O)O[C@H](Cc2ccccc2)C(=O)N(C)[C@@H](CC(C)C)C(=O)O[C@H](C)C(=O)N(C)[C@@H](CC(C)C)C(=O)O[C@H](Cc2ccccc2)C(=O)N(C)[C@@H](CC(C)C)C(=O)O[C@H](C)C(=O)N1C [PF-1022A, reference compound]
- C. elegans MMIC DC19 (C. elegans DC19; [3]): 2.5 µg/mL
- C. elegans MMIC N2 (C. elegans N2; [3]): 10 µg/mL

Molecule: CCCSc1ccc2nc(NC(=O)OC)[nH]c2c1 [Albendazole, reference compound]
- C. elegans MMIC DC19 (C. elegans DC19): < 0.08 µg/mL
- C. elegans MMIC N2 (C. elegans N2): 0.16 µg/mL

Molecule: CNC(=O)O/N=C/C(C)(C)SC [Aldicarb, reference compound]
- C. elegans MMIC DC19 (C. elegans DC19; [3]): > 10 µg/mL
- C. elegans MMIC N2 (C. elegans N2; [3]): > 10 µg/mL

Molecule: CNC(C)C1CCC(N)C(OC2C(N)CC(N)C(OC3OCC(C)(O)C(NC)C3O)C2O)O1 (stereo not drawn) [GEN, gentamicin, reference compound]
- MIC [2]: 1 µg/mL (≈ 2.09 µM)
- MIC (S. aureus ATCC33592): 0.5 µg/mL (≈ 1.05 µM)
